Data: paper PMC12396409, “Screening and hit evaluation of a microbial metabolite library against the pathogenic Plasmodium falciparum and Toxoplasma gondii parasites” (International Journal for Parasitology: Drugs and Drug …, 2025)
Like-named read-outs stand apart in the source and are kept apart here. *1 amine or outer side, *2 acyl side, *3 side chain or, on linkers, in order; H or OH if unused. Where a SMILES comes first, the peptide text is derived from it. Bridges are numbered along the chain shown (N, C = ends). [ ]: non-standard residue; d: D form. The star is where a group is joined. X1 = O=C1C[C@@H](C(=O)[*:2])N([*:1])C[C@H]1CS[C@@H]1CN2CCC1CC2; NMePhe(4-NMe2) = CN[C@@H](Cc1ccc(N(C)C)cc1)C(=O)O; Picolinoyl(3-OH) = O=C(c1ncccc1O)*; Phg = N[C@H](C(=O)O)c1ccccc1; dAbu = CC[C@@H](N)C(=O)O

Key:
[1] = system: P. falciparum 3D7 parasites; assay: P. falciparum growth inhibition assay, 2-cycle (120 h treatment), delayed-death screen and dose-response; type: cell-based, Plasmodium falciparum; settings: for activity at 2 µg/mL: Plasmodium falciparum, 3D7
[2] = system: T. gondii RH strain (RH-Tub-eYFP) tachyzoites; assay: microbe, parasite or virus in culture; type: cell-based, Toxoplasma gondii; settings: 72 h, 72 h; for percent parasite growth at 2 µg/mL: Toxoplasma gondii
[3] = system: P. falciparum 3D7 parasites; assay: P. falciparum growth inhibition assay, 1-cycle (72 h treatment), SYBR DNA staining (library screen at 2 μg/mL and dose-response); type: cell-based, Plasmodium falciparum; settings: for activity at 2 µg/mL: Plasmodium falciparum, 3D7
[4] = P. falciparum, 120 h, parasite screen 2 μg/mL, % growth, replicate 1, read-out: Pf_120h_%Growth_Rep1
[5] = P. falciparum, 120 h, parasite screen 2 μg/mL, % growth, replicate 2, read-out: Pf_120h_%Growth_Rep2
[6] = T. gondii, parasite screen 2 μg/mL, % growth, replicate 1, read-out: Tg_72h_%Growth_Rep1
[7] = T. gondii, parasite screen 2 μg/mL, % growth, replicate 2, read-out: Tg_72h_%Growth_Rep2
[8] = P. falciparum, 72 h, parasite screen 2 μg/mL, % growth, replicate 1, read-out: Pf_72h_%Growth_Rep1
[9] = P. falciparum, 72 h, parasite screen 2 μg/mL, % growth, replicate 2, read-out: Pf_72h_%Growth_Rep2
[10] = library screen at 2 μg/mL, 120 h, % growth, replicate 1
[11] = library screen at 2 μg/mL, 120 h, % growth, replicate 2
[12] = library screen at 2 μg/mL, % growth, replicate 1
[13] = library screen at 2 μg/mL, % growth, replicate 2
[14] = library screen at 2 μg/mL, 72 h, % growth, replicate 1
[15] = library screen at 2 μg/mL, 72 h, % growth, replicate 2
[16] = P. falciparum 3D7, 120 h, library screen at 2 μg/mL, % growth, replicate 1
[17] = P. falciparum 3D7, 120 h, library screen at 2 μg/mL, % growth, replicate 2
[18] = T. gondii RH, library screen at 2 μg/mL, % growth, replicate 1
[19] = T. gondii RH, library screen at 2 μg/mL, % growth, replicate 2
[20] = P. falciparum 3D7, 72 h, library screen at 2 μg/mL, % growth, replicate 1
[21] = P. falciparum 3D7, 72 h, library screen at 2 μg/mL, % growth, replicate 2

C[C@@H]1C[C@H]2O[C@@H]2/C=C\C=C\C(=O)Cc2c(Cl)c(O)cc(O)c2C(=O)O1 [Radicicol]
activity at 2 µg/mL [1, 4]: 64.2% | activity at 2 µg/mL [1, 5]: 55% | percent parasite growth at 2 µg/mL [2, 6]: 52.9% | percent parasite growth at 2 µg/mL [2, 7]: 57.6% | activity at 2 µg/mL [3, 8]: 57.5% | activity at 2 µg/mL [3, 9]: 42.5%

Cc1cc(O)c2c(c1)C(=O)c1c(c(O)cc(O)c1-c1c(O)cc(O)c3c1C(=O)c1cc(C)cc(O)c1C3=O)C2=O [Skyrin]
activity at 2 µg/mL [1, 4]: 75.2% | activity at 2 µg/mL [1, 5]: 137% | percent parasite growth at 2 µg/mL [2, 6]: 114% | percent parasite growth at 2 µg/mL [2, 7]: 84.9% | activity at 2 µg/mL [3, 8]: 80.4% | activity at 2 µg/mL [3, 9]: 120%

C=C[C@@H](CO)[C@H]1CCN2CCc3c([nH]c4ccccc34)[C@@H]2C1 [Anthirine]
Pf_120h_%Growth_Rep1 [1, 10]: 66.95% | Pf_120h_%Growth_Rep2 [1, 11]: 48.16% | Tg_72h_%Growth_Rep1 [2, 12]: 43.71% | Tg_72h_%Growth_Rep2 [2, 13]: 53.47% | Pf_72h_%Growth_Rep1 [3, 14]: 73.25% | Pf_72h_%Growth_Rep2 [3, 15]: 82.22%

CC[C@H]1NC(=O)[C@@H](NC(=O)c2ncccc2O)[C@@H](C)OC(=O)[C@H](c2ccccc2)NC(=O)[C@@H]2CC(=O)[C@H](CS[C@@H]3CN4CCC3CC4)CN2C(=O)[C@H](Cc2ccc(N(C)C)cc2)N(C)C(=O)[C@@H]2CCCN2C1=O.CS(=O)(=O)O [Quinupristin mesylate] ({Picolinoyl(3-OH)}-T[dAbu]P[NMePhe(4-NMe2)][X1][Phg]; ester 1-C)
Pf_120h_%Growth_Rep1 ([1]; P. falciparum, 120 h, parasite screen 2 μg/mL, % growth, replicate 1): 64.23% | Pf_120h_%Growth_Rep2 ([1]; P. falciparum, 120 h, parasite screen 2 μg/mL, % growth, replicate 2): 110.37% | Tg_72h_%Growth_Rep1 ([2]; T. gondii, parasite screen 2 μg/mL, % growth, replicate 1): 87.31% | Tg_72h_%Growth_Rep2 ([2]; T. gondii, parasite screen 2 μg/mL, % growth, replicate 2): 81.75% | Pf_72h_%Growth_Rep1 ([3]; P. falciparum, 72 h, parasite screen 2 μg/mL, % growth, replicate 1): 73.76% | Pf_72h_%Growth_Rep2 ([3]; P. falciparum, 72 h, parasite screen 2 μg/mL, % growth, replicate 2): 97.23%

COC(=O)C1=COC(C)C2CN3CCc4c([nH]c5cc(OC)c(OC)cc45)C3CC12 (stereo not shown) [BIA-I1957]
Pf_120h_%Growth_Rep1 [1, 16]: 15.82% | Pf_120h_%Growth_Rep2 [1, 17]: -7.23% | Tg_72h_%Growth_Rep1 [2, 18]: 168.01% | Tg_72h_%Growth_Rep2 [2, 19]: 105.99% | Pf_72h_%Growth_Rep1 [3, 20]: 25.00% | Pf_72h_%Growth_Rep2 [3, 21]: 24.20%

COc1ccc(/C=C/C(=O)O)cc1O [BIA-I1729]
Pf_120h_%Growth_Rep1 [1, 16]: 85.87% | Pf_120h_%Growth_Rep2 [1, 17]: 112.77% | Tg_72h_%Growth_Rep1 [2, 18]: 136.89% | Tg_72h_%Growth_Rep2 [2, 19]: 92.18% | Pf_72h_%Growth_Rep1 [3, 20]: 80.53% | Pf_72h_%Growth_Rep2 [3, 21]: 116.78%

CC[C@H]1OC(=O)[C@H](C)[C@@H](O[C@H]2C[C@@](C)(OC)[C@@H](O)[C@H](C)O2)[C@H](C)[C@@H](O[C@@H]2O[C@H](C)C[C@H](N(C)C)[C@H]2O)[C@](C)(O)C[C@@H](C)C(=O)[C@H](C)[C@@H](O)[C@]1(C)O [Erythromycin A]
Pf_120h_%Growth_Rep1 [1, 10]: 83.81% | Pf_120h_%Growth_Rep2 [1, 11]: 89.66% | Tg_72h_%Growth_Rep1 [2, 12]: 29.44% | Tg_72h_%Growth_Rep2 [2, 13]: 44.08% | Pf_72h_%Growth_Rep1 [3, 14]: 79.99% | Pf_72h_%Growth_Rep2 [3, 15]: 105.49%

C/C=C(/C)c1cc(O)c(C)c2c1Oc1c(C)c(O)cc(/C(C)=C\C)c1C(=O)O2 [Folipastatin]
Pf_120h_%Growth_Rep1 [1, 10]: 81.33% | Pf_120h_%Growth_Rep2 [1, 11]: 105.49% | Tg_72h_%Growth_Rep1 [2, 12]: 114.14% | Tg_72h_%Growth_Rep2 [2, 13]: 93.99% | Pf_72h_%Growth_Rep1 [3, 14]: 84.22% | Pf_72h_%Growth_Rep2 [3, 15]: 87.89%

CC(/C=C/C(=O)NO)=C\[C@@H](C)C(=O)c1ccc(N(C)C)cc1 [trichostatin A, reference compound]
Pf_120h_%Growth_Rep1 ([1]; P. falciparum, 120 h, screen at 2 μg/mL, replicate 1): 8.88% | Pf_120h_%Growth_Rep2 ([1]; P. falciparum, 120 h, screen at 2 μg/mL, replicate 2): 11.39% | Tg_72h_%Growth_Rep1 ([2]; T. gondii, screen at 2 μg/mL, replicate 1): 0.84% | Tg_72h_%Growth_Rep2 ([2]; T. gondii, screen at 2 μg/mL, replicate 2): 0.67% | activity in the screen against P. falciparum ([3]; 2 μg/mL, 72 h, active = ≥80 % growth inhibition): active | Pf_72h_%Growth_Rep1 ([3]; P. falciparum, 72 h, screen at 2 μg/mL, replicate 1): 1.39% | Pf_72h_%Growth_Rep2 ([3]; P. falciparum, 72 h, screen at 2 μg/mL, replicate 2): -9.74%

CC(=O)OC[C@]12CCC(C)=C[C@H]1O[C@@H]1[C@H](O)[C@@H](O)[C@@]2(C)[C@]12CO2 [Acetoxyscirpenol, 15-]
Pf_120h_%Growth_Rep1 [1, 10]: 8.73% | Pf_120h_%Growth_Rep2 [1, 11]: 7.76% | Tg_72h_%Growth_Rep1 [2, 12]: -2.14% | Tg_72h_%Growth_Rep2 [2, 13]: 0.34% | Pf_72h_%Growth_Rep1 [3, 14]: 9.02% | Pf_72h_%Growth_Rep2 [3, 15]: 0.50%
